Measurements reported in US6747027B1, “Thiol sulfonamide metalloprotease inhibitors” (Pharmacia Corporation, priority 1996, dated 2004).
Structures can show the parent of a compound that is named as a salt.

Experiments:
recombinant human MMP-1 = biological target: T1, recombinant human MMP-1 (Homo sapiens, UniProt P03956); assay: In vitro metalloprotease inhibition, fluorogenic peptide assay (MMP-1); assay type: biochemical; details: recombinant human MMP-1, APMA activated; fluorogenic MCA peptide substrate 4 uM; pH 7.5, room temperature
T1 construct: made in house; host or cells: transfected HT-1080 cells (provided by Dr. Howard Welgus, Washington University)
T1 sequence (P03956 100-469): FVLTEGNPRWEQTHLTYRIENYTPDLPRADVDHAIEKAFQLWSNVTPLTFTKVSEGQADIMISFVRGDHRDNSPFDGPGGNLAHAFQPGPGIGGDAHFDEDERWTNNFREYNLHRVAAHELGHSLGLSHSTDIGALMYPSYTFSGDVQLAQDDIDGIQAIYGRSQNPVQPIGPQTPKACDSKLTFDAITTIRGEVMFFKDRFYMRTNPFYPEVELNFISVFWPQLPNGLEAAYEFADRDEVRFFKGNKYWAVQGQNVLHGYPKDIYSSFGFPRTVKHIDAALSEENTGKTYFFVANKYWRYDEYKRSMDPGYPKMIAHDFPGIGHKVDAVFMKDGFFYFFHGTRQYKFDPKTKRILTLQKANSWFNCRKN
Outline: (§1)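 APMA-activated recombinant human MMP-13 (baculovirus-expressed) and MMP-1 (HT-1080-expressed) preincubated with inhibitor 10 min at room temperature in Tris/NaCl/CaCl2 buffer, pH 7.5, 1% DMSO final. MCA-PLGL-Dpa-AR-NH2 substrate at 4 uM final; cleavage read as fluorescence (ex 328/em 415 nm). IC50 from fluorescence reduction versus inhibitor concentration.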

recombinant human MMP-13 = biological target: T2, recombinant human MMP-13 (Homo sapiens, UniProt P45452); assay: In vitro metalloprotease inhibition, fluorogenic peptide assay (MMP-13); assay type: biochemical; details: recombinant human MMP-13, APMA activated; fluorogenic MCA peptide substrate 4 uM; pH 7.5, room temperature
T2 construct: made in house
Outline: as §1

[1] = tested on: angiogenesis in the cornea of a mouse; assay: In vivo angiogenesis assay (corneal micropocket assay, bFGF pellet); details: C57Bl/6 female mouse, 50 mg/kg bid, po, scored at day five
Method: The study of angiogenesis depends on a reliable and reproducible model for the stimulation and inhibition of a neovascular response. The corneal micropocket assay provides such a model of angiogenesis in the cornea of a mouse. See, A Model of Angiogenesis in the Mouse Cornea; Kenyon, B M, et al., Investigative Ophthalmology & Visual Science, July 1996, Vol. 37, No. 8.
In this assay, uniformly sized Hydron™ pellets containing bFGF and sucralfate were prepared and surgically implanted into the stroma mouse cornea adjacent to the temporal limbus. […]
Mice were dosed on a daily basis for the duration of the assay. […] At day five, the degree of angiogenic inhibition was scored by viewing the neovascular progression with a slit lamp microscope.
The mice were anesthetized and the studied eye was once again proptosed. The maximum vessel length of neovascularization, extending from the limbal vascular plexus toward the pellet was measured. In addition, the contiguous circumferential zone of neovascularization was measured as clock hours, where 30 degrees of arc equals 1 clock hour. The area of angiogenesis was calculated as [formula]
where the vessel length is measured in millimeters.
The studied mice were thereafter compared to control mice and the difference in the area of neovascularization was recorded.

IC50 (recombinant human MMP-1) [µM] | IC50 (recombinant human MMP-13) [nM] | Compound | inhibition of area of neovascularization versus control mice [1] [%]
> 10 | 1.1 | NC(=O)[C@H](CS)N(CCN1CCOCC1)S(=O)(=O)c1ccc(NC(=O)c2ccccc2)cc1 [Example 218, N-(4-benzoylamino)phenylsulfonyl-N-(4-(morpholino-ethyl))-L-cysteine amide] | 37
0.3 | 32.5 | COc1ccc(S(=O)(=O)N(C)[C@H](C)CS)cc1 [Example 11D, N-(2-Mercapto-1R-methylethyl)-N-methyl-4-methoxybenzenesulfonamide] | 
> 10 | 1800 | C[C@H](CO)N(C)S(=O)(=O)c1ccc(-c2ccccn2)s1 [Example 42D, N-(2-Hydroxy-1R-methylethyl)-N-methyl-2-(pyrid-2-yl)thiophene-5-sulfonamide] | 
6 | 0.7 | C[C@H](CS)N(CCN1CCCCC1)S(=O)(=O)c1ccc(Sc2ccccc2)cc1 [Example 92D, N-(2-Mercapto-1R-methylethyl)-N-[2-(1-piperidino)ethyl]-4-(thiophenyl)benzenesulfonamide Hydrochloride] | 
> 10 | 190 | CCCCOc1ccc(S(=O)(=O)N(CCC(C)C)[C@@H](CS)C(N)=O)cc1 [Example 208] | 
3 | 110 | C[C@H](CS)N(C)S(=O)(=O)c1ccc2c(c1)OCO2 [Example 20C, N-(2-Mercapto-1R-methylethyl)-N-methyl-5-(1,3-benzodioxol-5-yl)sulfonamide] | 
> 10 | 250 | CCCCOc1ccc(S(=O)(=O)N[C@@H](CS)C(=O)NCCN2CCOCC2)cc1 [Example 172] | 
0.313 | 0.71 | C[C@H](CS)N(C)S(=O)(=O)c1ccc(-c2ccccc2)cc1 [Example 55, N-(2-Mercapto-1R-methylethyl)-N-methyl-4-(phenyl)benzenesulfonamide] | 
> 10 | 300 | CCCCOc1ccc(S(=O)(=O)N[C@@H](CS)C(=O)N(C)C)cc1 [Example 178] | 

Compound | IC50 (recombinant human MMP-1) [µM] | IC50 (recombinant human MMP-13) [nM] | inhibition of area of neovascularization versus control mice [1] [%]
CCCCOc1ccc(S(=O)(=O)N[C@H](C)CS)cc1 [Example 15, N-(2-Mercapto-1R-methylethyl)-4-(n-butoxy)benzenesulfonamide] | > 10 | 75 | 
N-(1R-Mercaptomethyl)propyl-N-methyl-4-(n-butoxy)benzenesulfonamide [Example 23C] | 4 | 150 | 
